Source: ChEMBL document CHEMBL1201862, “PubChem BioAssay data set” (2004)
Calls of active or inactive are those of the source.

Experiments:
[1] = Luminescence Cell-Based Dose Response HTS to Identify Inhibitors of 5'UTR Stem-Loop Driven Prion Protein mRNA Translation in H4 Neuroglioblastoma Cells. [Related pubchem assays: 1827 (Project Summary), 1813 (Primary HTS)]; type: functional
[2] = luciferase reporter signal suppression in cells – H4 neuroglioma cells, luminescence, dose response (AID 1990); type: functional, cell-based
[3] = alpha-synuclein stem-loop luciferase translation blockers – H4 neuroglioma cells, luminescence, confirmation (AID 1988); type: functional, cell-based
[4] = target: Glucose-6-phosphate 1-dehydrogenase (Homo sapiens, UniProt P11413); assay: inhibition of Homo sapiens G6PD, dose series – biochemical, fluorescence, selectivity assay for P. falciparum G6PD inhibitor project, dose response (AID 504792); type: functional
Chain of Glucose-6-phosphate 1-dehydrogenase (P11413 whole entry): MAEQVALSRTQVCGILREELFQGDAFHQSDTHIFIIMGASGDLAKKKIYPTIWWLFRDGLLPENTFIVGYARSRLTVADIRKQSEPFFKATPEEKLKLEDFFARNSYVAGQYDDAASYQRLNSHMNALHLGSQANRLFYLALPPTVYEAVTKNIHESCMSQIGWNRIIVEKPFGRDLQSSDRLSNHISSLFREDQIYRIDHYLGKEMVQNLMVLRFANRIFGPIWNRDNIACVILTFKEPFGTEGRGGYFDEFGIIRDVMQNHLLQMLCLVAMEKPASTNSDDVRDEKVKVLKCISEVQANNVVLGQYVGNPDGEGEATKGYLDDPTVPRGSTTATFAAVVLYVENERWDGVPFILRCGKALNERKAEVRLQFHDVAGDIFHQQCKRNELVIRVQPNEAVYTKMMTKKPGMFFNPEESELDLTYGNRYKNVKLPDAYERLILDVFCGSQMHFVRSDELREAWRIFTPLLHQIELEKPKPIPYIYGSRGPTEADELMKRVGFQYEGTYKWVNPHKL

[5] = target: T1, Histone-lysine N-methyltransferase NSD2 (Homo sapiens, UniProt O96028); type: biochemical
T1 sequence (O96028 whole entry): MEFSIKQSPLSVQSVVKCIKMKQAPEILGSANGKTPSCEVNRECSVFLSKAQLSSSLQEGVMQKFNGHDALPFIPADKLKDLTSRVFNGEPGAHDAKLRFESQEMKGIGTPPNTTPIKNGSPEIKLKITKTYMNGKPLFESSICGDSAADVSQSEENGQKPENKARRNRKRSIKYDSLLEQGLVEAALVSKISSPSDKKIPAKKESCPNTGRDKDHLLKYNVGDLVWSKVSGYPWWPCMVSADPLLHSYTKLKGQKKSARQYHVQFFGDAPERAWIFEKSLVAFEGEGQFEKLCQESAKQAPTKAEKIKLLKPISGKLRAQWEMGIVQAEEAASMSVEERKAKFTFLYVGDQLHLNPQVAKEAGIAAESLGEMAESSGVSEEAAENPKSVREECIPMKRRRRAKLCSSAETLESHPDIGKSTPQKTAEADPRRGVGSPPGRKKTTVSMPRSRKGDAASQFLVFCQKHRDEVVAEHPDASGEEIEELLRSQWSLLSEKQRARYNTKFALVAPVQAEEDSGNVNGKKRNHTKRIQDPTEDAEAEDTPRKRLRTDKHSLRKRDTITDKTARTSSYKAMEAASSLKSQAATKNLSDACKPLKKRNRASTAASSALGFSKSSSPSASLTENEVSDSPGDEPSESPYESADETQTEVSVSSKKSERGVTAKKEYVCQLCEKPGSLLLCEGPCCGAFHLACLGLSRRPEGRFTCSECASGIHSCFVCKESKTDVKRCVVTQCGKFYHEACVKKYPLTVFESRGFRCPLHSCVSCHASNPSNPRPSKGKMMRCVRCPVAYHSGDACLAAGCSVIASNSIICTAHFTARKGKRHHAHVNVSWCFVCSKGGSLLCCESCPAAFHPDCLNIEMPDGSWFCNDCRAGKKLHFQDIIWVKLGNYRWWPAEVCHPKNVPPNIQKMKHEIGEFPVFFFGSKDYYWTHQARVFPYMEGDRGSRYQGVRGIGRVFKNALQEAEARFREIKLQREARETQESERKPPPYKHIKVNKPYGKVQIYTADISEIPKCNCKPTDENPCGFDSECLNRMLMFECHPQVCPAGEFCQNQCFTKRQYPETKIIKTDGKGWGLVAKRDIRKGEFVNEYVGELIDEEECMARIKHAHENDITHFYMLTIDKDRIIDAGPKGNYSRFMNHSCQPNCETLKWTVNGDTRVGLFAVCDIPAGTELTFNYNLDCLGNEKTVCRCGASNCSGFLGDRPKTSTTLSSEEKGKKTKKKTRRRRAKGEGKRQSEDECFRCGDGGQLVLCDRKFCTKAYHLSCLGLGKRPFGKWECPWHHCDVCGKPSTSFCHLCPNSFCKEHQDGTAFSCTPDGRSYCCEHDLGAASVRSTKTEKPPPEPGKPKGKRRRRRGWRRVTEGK

[6] = target: Cytochrome P450 2C9 (Homo sapiens, UniProt P11712)
Chain of Cytochrome P450 2C9 (P11712 whole entry): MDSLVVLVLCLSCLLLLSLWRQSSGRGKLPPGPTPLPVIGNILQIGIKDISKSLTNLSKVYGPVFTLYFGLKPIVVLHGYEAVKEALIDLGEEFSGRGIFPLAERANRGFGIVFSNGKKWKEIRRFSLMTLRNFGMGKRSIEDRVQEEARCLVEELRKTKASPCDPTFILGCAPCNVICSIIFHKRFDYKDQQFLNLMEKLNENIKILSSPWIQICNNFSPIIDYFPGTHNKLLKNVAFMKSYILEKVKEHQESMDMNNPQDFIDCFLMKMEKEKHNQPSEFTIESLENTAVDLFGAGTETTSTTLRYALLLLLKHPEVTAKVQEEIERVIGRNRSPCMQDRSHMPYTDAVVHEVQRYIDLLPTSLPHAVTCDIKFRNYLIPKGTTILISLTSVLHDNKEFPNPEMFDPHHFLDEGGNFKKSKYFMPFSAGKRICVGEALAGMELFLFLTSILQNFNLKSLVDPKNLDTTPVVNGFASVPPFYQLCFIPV

[7] = target: Genome polyprotein (dengue virus type 2, UniProt P29990); assay: flavivirus cap methylation enzyme inhibition – biochemical, confirmation dose response, primary screen (AID 588689); type: functional
Chain of Genome polyprotein (P29990 2492-3391 limits assumed): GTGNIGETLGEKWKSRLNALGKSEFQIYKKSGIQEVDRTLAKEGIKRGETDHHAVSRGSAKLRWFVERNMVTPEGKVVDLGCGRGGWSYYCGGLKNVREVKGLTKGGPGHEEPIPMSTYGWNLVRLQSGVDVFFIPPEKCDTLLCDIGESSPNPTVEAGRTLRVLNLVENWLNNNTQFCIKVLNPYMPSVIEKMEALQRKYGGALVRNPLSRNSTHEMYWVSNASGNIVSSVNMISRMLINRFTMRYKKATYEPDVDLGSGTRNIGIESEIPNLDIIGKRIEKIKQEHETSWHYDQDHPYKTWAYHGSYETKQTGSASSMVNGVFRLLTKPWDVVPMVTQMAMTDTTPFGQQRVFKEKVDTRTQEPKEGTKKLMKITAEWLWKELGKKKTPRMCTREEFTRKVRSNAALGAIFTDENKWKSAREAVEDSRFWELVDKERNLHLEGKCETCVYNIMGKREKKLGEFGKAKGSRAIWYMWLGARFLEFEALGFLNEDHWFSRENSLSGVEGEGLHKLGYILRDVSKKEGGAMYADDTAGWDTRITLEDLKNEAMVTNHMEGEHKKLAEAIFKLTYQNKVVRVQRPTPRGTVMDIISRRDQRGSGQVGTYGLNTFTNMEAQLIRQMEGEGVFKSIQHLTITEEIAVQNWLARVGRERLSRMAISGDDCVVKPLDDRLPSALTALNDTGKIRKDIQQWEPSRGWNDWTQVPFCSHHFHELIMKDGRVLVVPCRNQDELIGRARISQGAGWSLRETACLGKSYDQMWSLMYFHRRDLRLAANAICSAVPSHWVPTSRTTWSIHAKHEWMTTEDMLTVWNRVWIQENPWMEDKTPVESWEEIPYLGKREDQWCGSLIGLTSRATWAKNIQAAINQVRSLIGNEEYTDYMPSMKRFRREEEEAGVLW

[8] = Trypanosoma cruzi growth suppression in host cells – NIH3T3 host cells, beta-gal luminescence, confirmation (AID 2044); type: functional, cell-based;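 note: intracellular parasites grown in NIH/3T3 mouse fibroblasts as host cells; luminescent beta-galactosidase reporter signal from transgenic T. cruzi replicating inside host cells; inhibitors lower the luminescence signal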
[9] = test system: BJ; assay: BJ-TERT-LT-ST fibroblast viability loss – cell-based, RAS-independent, luminescence, dose response (AID 1935); type: functional, Homo sapiens; conditions: Homo sapiens, BJ;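 note: BJ fibroblasts immortalized with TERT plus LT and ST oncogenes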
[10] = target: T2, Heat shock factor protein 1 (Mus musculus, UniProt P38532); assay: enhancement of HSF1-driven luciferase signal – cell-based, NIH3T3, luminescence, dose retest, confirmation (AID 435004); type: functional;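 note: stress induced by proteasome inhibitor MG132 added 30 min after compound; luciferase reporter driven by HSF1 response element in NIH3T3 cells; actives raise luminescence as potentiators of the MG132 stress response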
T2 sequence (P38532 whole entry): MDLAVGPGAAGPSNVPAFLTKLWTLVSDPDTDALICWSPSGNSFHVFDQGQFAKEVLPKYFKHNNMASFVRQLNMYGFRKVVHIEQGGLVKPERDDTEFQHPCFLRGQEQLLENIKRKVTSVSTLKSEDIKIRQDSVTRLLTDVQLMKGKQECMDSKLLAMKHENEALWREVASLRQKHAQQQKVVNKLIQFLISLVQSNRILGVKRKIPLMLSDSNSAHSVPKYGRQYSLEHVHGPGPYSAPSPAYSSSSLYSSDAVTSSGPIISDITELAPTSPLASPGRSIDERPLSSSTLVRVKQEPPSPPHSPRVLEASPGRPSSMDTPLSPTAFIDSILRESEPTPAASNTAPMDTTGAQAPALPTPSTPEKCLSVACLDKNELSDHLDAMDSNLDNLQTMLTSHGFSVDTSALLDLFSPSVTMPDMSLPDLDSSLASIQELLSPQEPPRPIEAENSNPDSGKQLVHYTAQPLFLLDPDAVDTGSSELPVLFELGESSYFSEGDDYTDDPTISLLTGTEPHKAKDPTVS

[11] = test system: BJ; assay: BJ-TERT fibroblast viability loss – cell-based, RAS-independent, luminescence, dose response (AID 1933); type: functional, Homo sapiens; conditions: Homo sapiens, BJ
[12] = target: T3, Replicative DNA helicase DnaB (Mycobacterium tuberculosis, UniProt P9WMR3); assay: DnaB intein splicing inhibitors, dose response, biochemical, cell-free fluorescence (AID 449749); type: functional
T3 sequence (P9WMR3 whole entry): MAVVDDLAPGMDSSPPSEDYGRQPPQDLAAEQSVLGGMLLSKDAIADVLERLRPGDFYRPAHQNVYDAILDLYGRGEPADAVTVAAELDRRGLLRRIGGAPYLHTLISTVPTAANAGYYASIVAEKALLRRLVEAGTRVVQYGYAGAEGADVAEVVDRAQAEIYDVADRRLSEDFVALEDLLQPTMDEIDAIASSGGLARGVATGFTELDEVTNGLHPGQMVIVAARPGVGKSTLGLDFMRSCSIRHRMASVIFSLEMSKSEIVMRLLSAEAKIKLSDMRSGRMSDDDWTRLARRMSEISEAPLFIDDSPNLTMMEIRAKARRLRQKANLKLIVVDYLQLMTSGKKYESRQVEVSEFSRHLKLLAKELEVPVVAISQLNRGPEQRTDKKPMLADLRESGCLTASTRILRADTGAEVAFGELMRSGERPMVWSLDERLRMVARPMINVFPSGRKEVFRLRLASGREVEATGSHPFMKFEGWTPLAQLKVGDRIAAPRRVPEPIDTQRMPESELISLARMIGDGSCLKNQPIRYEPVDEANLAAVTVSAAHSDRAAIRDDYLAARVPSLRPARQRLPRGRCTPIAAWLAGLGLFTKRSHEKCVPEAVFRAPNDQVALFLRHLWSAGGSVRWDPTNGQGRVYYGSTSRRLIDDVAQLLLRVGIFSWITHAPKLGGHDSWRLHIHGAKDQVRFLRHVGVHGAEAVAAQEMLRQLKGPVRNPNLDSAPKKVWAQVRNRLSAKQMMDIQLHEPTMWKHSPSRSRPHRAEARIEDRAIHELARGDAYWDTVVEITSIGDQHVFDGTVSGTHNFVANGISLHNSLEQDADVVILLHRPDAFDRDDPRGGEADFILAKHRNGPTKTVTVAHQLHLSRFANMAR

[13] = target: T4, Protein RecA (Mycobacterium tuberculosis, UniProt P9WHJ3); assay: Fluorescence Cell-Free Homogeneous Dose Retest to Identify Inhibitors of RecA-Intein Splicing Activity. [Related pubchem assays (depositor defined):AID2097, AID2223, AID489010, AID492950]; type: functional
T4 sequence (P9WHJ3 whole entry): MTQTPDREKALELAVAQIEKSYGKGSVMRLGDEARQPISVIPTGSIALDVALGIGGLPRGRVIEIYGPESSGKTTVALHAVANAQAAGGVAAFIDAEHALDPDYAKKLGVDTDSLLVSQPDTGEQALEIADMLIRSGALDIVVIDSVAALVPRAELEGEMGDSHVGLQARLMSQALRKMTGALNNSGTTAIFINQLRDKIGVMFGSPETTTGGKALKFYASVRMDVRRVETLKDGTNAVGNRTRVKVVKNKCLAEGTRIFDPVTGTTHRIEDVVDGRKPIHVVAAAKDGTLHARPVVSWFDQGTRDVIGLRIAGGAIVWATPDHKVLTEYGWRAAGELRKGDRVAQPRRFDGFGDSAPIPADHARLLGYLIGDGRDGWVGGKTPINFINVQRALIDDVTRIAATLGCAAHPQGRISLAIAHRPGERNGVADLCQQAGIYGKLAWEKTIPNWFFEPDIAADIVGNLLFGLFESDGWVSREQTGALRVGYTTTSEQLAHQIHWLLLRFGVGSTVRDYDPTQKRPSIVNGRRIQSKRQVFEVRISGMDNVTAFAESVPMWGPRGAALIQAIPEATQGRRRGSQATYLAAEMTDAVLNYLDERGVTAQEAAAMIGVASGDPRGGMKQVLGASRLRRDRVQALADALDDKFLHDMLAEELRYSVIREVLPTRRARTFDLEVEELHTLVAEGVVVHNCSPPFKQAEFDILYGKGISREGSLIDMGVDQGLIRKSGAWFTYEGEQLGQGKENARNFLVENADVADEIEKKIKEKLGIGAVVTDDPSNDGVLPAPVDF

[14] = DRD fibroblast viability loss – cell-based, non-viral oncogenic, luminescence, dose response (AID 1934); type: functional; conditions: Homo sapiens
[15] = test system: BJ; assay: cells; type: functional, cell-based, Homo sapiens; conditions: Homo sapiens, BJ
[16] = NIH3T3 cell viability loss – ATP luminescence, mouse fibroblasts, counter-screen, dose response (AID 2010); type: functional, cell-based;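 note: cells exposed to compound for about 90 hours before reading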
[17] = target: T5, Cytochrome P450 1A2 (Homo sapiens, UniProt P05177);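 note: PubChem cytochrome P450 panel assay, CYP1A2 panel member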
T5 sequence (P05177 whole entry): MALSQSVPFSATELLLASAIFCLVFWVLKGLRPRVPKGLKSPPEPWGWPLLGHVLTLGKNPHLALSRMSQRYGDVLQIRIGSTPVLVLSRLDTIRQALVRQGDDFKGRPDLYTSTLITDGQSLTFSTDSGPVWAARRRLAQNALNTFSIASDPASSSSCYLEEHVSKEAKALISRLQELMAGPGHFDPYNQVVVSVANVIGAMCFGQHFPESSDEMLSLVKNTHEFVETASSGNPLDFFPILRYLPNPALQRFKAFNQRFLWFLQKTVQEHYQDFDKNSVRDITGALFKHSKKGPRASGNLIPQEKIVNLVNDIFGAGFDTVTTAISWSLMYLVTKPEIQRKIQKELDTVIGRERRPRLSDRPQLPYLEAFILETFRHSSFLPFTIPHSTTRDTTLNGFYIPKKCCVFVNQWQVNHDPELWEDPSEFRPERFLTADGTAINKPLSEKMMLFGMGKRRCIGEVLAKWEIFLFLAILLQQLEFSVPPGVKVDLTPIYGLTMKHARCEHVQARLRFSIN

[18] = target: Induced myeloid leukemia cell differentiation protein Mcl-1 (Homo sapiens, UniProt Q07820); type: functional
Chain of Induced myeloid leukemia cell differentiation protein Mcl-1 (Q07820 whole entry): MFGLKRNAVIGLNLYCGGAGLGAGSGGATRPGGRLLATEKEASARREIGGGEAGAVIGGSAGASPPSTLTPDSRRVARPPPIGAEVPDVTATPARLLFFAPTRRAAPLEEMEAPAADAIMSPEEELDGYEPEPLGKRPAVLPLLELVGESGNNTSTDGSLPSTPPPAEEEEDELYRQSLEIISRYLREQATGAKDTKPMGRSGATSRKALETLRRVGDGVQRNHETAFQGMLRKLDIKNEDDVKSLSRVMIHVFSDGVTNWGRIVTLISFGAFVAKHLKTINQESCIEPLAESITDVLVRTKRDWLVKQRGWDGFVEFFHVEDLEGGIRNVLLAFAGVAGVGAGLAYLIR

[19] = target: Cytochrome P450 2D6 (Homo sapiens, UniProt P10635);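 note: CYP2D6 member of a cytochrome P450 panel assay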
Chain of Cytochrome P450 2D6 (P10635 whole entry, the tested form may be a part): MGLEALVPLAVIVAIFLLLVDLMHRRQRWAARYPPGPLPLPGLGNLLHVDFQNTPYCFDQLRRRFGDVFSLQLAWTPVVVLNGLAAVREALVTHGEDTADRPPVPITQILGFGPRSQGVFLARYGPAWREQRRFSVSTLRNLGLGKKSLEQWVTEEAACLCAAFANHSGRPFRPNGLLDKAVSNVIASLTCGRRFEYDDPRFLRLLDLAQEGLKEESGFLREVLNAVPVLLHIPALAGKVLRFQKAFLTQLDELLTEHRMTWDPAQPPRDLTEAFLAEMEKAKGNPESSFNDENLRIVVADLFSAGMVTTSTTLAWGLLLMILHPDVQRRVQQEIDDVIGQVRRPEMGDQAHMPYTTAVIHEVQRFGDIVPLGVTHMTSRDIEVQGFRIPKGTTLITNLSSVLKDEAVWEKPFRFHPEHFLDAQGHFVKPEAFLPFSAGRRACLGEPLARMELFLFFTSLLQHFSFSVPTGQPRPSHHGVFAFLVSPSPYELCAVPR

[20] = target: T6, Carboxy-terminal domain RNA polymerase II polypeptide A small phosphatase 1 (Homo sapiens, UniProt Q9GZU7); assay: CTDSP1 inhibitors, concentration-response, biochemical, absorbance readout, ultra-high-throughput screen actives (AID 540297); type: functional
T6 sequence (Q9GZU7 whole entry): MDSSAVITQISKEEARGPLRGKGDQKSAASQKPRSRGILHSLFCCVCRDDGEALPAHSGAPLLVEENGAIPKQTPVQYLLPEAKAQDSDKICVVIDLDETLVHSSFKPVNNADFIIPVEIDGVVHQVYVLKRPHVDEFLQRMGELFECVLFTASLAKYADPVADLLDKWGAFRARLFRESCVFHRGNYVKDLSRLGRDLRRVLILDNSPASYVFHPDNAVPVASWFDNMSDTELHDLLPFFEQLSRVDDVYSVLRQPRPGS

[21] = target: DNA (cytosine-5)-methyltransferase 1 (Homo sapiens, UniProt P26358); assay: inhibition of DNA methylation by DNMT1 – biochemical, fluorescent molecular beacon, confirmation (AID 602386); type: functional
Chain of DNA (cytosine-5)-methyltransferase 1 (P26358 whole entry): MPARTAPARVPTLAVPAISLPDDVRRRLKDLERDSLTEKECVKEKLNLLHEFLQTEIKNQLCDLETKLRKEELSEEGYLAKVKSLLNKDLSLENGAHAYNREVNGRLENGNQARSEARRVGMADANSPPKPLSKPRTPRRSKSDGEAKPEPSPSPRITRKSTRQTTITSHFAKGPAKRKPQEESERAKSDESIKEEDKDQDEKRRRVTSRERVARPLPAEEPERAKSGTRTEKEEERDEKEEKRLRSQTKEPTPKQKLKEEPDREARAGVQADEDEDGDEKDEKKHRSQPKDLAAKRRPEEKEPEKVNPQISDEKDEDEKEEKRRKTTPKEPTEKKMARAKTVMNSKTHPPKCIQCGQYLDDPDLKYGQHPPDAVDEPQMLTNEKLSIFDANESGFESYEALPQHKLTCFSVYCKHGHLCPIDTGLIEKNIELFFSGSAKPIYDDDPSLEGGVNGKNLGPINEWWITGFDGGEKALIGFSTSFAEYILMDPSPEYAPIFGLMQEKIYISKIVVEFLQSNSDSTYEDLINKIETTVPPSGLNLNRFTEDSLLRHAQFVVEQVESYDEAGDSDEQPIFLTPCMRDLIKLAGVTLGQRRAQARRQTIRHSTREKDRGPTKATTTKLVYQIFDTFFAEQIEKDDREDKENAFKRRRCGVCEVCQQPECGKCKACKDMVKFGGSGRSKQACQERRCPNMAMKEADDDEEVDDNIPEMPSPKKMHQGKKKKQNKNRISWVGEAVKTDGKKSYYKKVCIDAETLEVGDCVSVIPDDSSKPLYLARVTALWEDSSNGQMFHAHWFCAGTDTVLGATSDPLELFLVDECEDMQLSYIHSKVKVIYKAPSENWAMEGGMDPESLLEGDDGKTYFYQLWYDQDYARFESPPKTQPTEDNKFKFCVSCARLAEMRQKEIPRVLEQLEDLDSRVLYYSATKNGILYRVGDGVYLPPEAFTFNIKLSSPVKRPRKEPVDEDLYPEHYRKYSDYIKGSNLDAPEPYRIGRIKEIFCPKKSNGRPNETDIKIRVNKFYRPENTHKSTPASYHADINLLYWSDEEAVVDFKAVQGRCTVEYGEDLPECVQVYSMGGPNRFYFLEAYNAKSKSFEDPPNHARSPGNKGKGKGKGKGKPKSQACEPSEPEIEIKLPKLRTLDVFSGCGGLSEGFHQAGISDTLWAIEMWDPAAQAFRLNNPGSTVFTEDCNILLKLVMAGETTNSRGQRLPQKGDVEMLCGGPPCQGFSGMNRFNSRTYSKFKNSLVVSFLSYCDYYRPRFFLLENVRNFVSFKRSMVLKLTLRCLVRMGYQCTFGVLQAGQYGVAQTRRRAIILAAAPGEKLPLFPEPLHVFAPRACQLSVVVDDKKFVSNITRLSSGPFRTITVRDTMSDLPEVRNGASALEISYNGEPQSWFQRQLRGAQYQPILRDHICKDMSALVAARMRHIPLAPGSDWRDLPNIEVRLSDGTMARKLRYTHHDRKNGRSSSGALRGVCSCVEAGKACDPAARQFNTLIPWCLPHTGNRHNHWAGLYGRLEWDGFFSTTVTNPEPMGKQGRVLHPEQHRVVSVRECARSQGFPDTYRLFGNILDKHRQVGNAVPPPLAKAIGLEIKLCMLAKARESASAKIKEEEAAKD

CN(C)c1cccc2c1c(NC(=O)c1ccc(Cl)cc1)nn2C
EC50 [1]: > 120 µM (not active) | EC50 [2]: > 120 µM (not active) | EC50 [3]: 24.2 µM (active) | IC50 [4]: > 80 µM (inactive)

O=[N+]([O-])c1ccc(N2CCCC2)cc1N1CCCC1
AC50 [5]: > 20 µM (inactive) | AC50 [6]: inconclusive

O=C(O)CN1C(=O)/C(=C\c2cccc(OCc3ccccc3F)c2)SC1=S
IC50 [7]: 38.2 µM (active)

Cc1ccc2[nH]c(SCC(=O)NC3CCCc4ccccc43)nc2c1 (stereo not given)
IC50 [4]: > 80 µM (inactive)

O=C(COC(=O)c1ccc2c(c1[N+](=O)[O-])C(=O)c1ccccc1C2=O)NC1CC1
EC50 [8]: 4.65 µM (active) | EC50 [9]: > 150 µM (not active) | EC50 [10]: 17 µM (active) | EC50 [11]: > 150 µM (not active) | AC50 [12]: 3.81 µM (active) | EC50 [13]: 0.238 µM (active) | EC50 [14]: > 150 µM (not active) | EC50 [15]: > 150 µM (not active) | EC50 [16]: 9.54 µM (active) | IC50 [4]: > 80 µM (inactive)

CC1(C)CC(=O)C(=Cc2cn(CCC#N)nc2-c2ccc(F)cc2)C(=O)C1
IC50 [7]: 52.8 µM (active)

O=C(CCN1C(=O)S/C(=C\c2ccccc2)C1=O)Nc1ccc(S(=O)(=O)Nc2nccs2)cc1
IC50 [7]: > 100 µM (active) | AC50 [17]: 31.6 µM (inconclusive) | IC50 [18]: 7.24 µM (active) | AC50 [19]: 6.31 µM (inconclusive)

O=CC(O)C1OC(=O)C(O)C1O (stereo not given)
IC50 [20]: 4.05 µM (active) | IC50 [21]: 14.4 µM (active)
